What was measured:
A[…] (Fungus) = test: Minimum Inhibitory Concentration (MIC) test; format: cell-based; conditions: Aspergillus niger (fungus)
Experimental: (§1) Minimum Inhibitory Concentration (MIC's) were determined and compared to a nonylphenol-glycidol based surfactant.

E[…] (Gram Negative) = test: Minimum Inhibitory Concentration (MIC) test; format: cell-based; conditions: Escheridida coli (Gram negative)
Experimental: as §1

[1] = tested on: STAPHYLOCOCCUS AUREUS (Gram positive); test: Minimum Inhibitory Concentration (MIC) test; format: cell-based
Experimental: as §1

[2] = Surface tension (ASTM Designation D1331-56); format: physicochemical; conditions: 0.1 wt. % concentration; ASTM D1331-56
Excerpt: The surface tensions (ASTM Designation D1331-56) of the products at 0.1 wt. % concentration were as follows: […]

[3] = Solubility in 50% sodium hydroxide solution; format: physicochemical
Experimental: A 500 ml, 3-necked round bottom flask was fitted with a mechanical stirrer, thermometer, nitrogen inlet, dropping funnel and vent. Under the nitrogen atmosphere, Armeen CD^(1), 15 g (0.075 mole) was placed in the flask and the contents heated to 138° C. Glycidol in an amount of 16.67 g (0.225 mole) was placed in the dropping funnel and glycidol addition to the Armeen CD was initiated at a rate of approximately 0.15 g/minute. Reaction temperature was maintained at 140°-152° C. and glycidol addition was completed in about 2 hours. The reaction mixture was stirred and heated at reaction temperature an additional 2 hours. The flask and its contents were then cooled and the product removed. […] This product was referred to as cocamine 3-mole glycidol adduct and its molecular weight was 422.
All three products were soluble in 50% sodium hydroxide solution.

Substance | Minimum Inhibitory Concentration (A[…] (Fungus)) [PPM] | Minimum Inhibitory Concentration (E[…] (Gram Negative)) [PPM] | Minimum Inhibitory Concentration [1] [PPM] | surface tension [2] [dynes/cm] | solubility in 50% sodium hydroxide solution [3]
Armeen CD-3m glycidol amine [Example I] | 128 | 256 | 32 | 32.3 | 
cocamine 3-mole glycidol adduct |  |  |  |  | soluble and clear

From patent US5059625A, “Polyglycidol amine oxide surfactants having antimicrobial activity” (Olin Corporation, priority 1990, dated 1991)
